Experimental data as given in ChEMBL document CHEMBL1139196, “Synthesis of fluorescent-labeled aeruginosin derivatives for high-throughput fluorescence correlation spectroscopy assays” (Bioorg Med Chem Lett, 2007).

target: Trypsin (Homo sapiens, UniProt P07477+P07478+P35030); assay: Inhibition of trypsin by FCS method; type: protein assay

Compound	IC50
N=C(N)NCCC[C@@H](CO)NC(=O)[C@@H]1C[C@@H]2CC[C@@H](O)C[C@@H]2N1C(=O)[C@@H](Cc1ccc(O)cc1)NC(=O)[C@H](O)Cc1ccc(O)cc1	8800 nM
N=C(N)NCCC[C@H](NC(=O)[C@@H]1C[C@@H]2CC[C@@H](O)C[C@@H]2N1C(=O)[C@@H](Cc1ccc(O)cc1)NC(=O)[C@H](O)Cc1ccc(O)cc1)C(=O)O	1000 nM
N=C(N)NCCCCNC(=O)[C@@H]1C[C@@H]2CC[C@@H](O)C[C@@H]2N1C(=O)[C@@H](Cc1ccc(O)cc1)NC(=O)[C@H](O)Cc1ccc(O)cc1	150 nM
N=C(N)NCCC[C@H](NC(=O)[C@@H]1C[C@@H]2CC[C@@H](O)C[C@@H]2N1C(=O)[C@H](Cc1ccccc1)NC(=O)[C@H](O)Cc1ccc(O)cc1)C(=O)O	12000 nM
CC(C)C[C@@H](NC(=O)[C@H](O)Cc1ccc(O)cc1)C(=O)N1[C@H](C(=O)N[C@@H](CCCNC(=N)N)C(=O)O)C[C@@H]2CC[C@@H](O)C[C@@H]21	650 nM
